Assay results reported in patent US8404689B2, “Heterocyclic amide compounds useful as kinase inhibitors” (Bristol-Myers Squibb Company, priority 2006, dated 2013).

Biological target: T1, p38alpha (Homo sapiens, UniProt Q16539)
T1 construct: GST (N); made in house; host or cells: E. coli (pGEX vector)
Experiment: p38α Assay (Caliper LabChip, fluoresceinated peptide)
Type: biochemical
Conditions: ratio of p38 beta IC50 to p38 alpha IC50; higher numbers indicate greater alpha selectivity

T1 sequence (Q16539 whole entry): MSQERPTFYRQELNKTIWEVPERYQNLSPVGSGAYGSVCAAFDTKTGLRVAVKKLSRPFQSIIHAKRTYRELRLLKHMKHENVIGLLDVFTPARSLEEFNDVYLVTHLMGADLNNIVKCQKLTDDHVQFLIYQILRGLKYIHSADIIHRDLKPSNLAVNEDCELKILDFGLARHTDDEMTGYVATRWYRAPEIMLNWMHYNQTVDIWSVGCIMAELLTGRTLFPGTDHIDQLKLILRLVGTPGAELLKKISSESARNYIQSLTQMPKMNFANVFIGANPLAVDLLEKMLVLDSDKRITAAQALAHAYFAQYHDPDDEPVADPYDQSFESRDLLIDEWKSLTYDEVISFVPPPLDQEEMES

Going from `Cc1ccc(C(=O)NC2CC2)cc1NC(=O)c1ccc(-c2cccc(C(=O)O)c2)s1` [Example 146, 3-(5-(5-(cyclopropylcarbamoyl)-2-methylphenylcarbamoyl)thiophen-2-yl)benzoicacid] to `Cc1ccc(C(=O)NC2CC2)cc1NC(=O)c1ccc(-c2cccc(N)c2)s1` [Example 159, 5-(3-aminophenyl)-N-(5-(cyclopropylcarbamoyl)-2-methylphenyl)thiophene-2-carboxamide], the “beta/alpha (alpha selectivity)” value falls from 248 to 200.

First: Cc1ccc(C(=O)NC2CC2)cc1NC(=O)c1ccc(-c2cc(F)cc(F)c2)s1 [Example 148, N-(5-(cyclopropylcarbamoyl)-2-methylphenyl)-5-(3,5-difluorophenyl)thiophene-2-carboxamide]
Second: Cc1ccc(C(=O)NC2CC2)cc1NC(=O)c1ccc(-c2ccc(F)nc2)s1 [Example 169, N-(5-(cyclopropylcarbamoyl)-2-methylphenyl)-5-(6-fluoropyridin-3-yl)thiophene-2-carboxamide]
The “beta/alpha (alpha selectivity)” value of the first is lower: 160 for the first, 257 for the second.

First: COc1ccc(-c2ccc(C(=O)Nc3cc(C(=O)NC4CC4)ccc3C)s2)c(OC)c1 [Example 153, N-(5-(cyclopropylcarbamoyl)-2-methylphenyl)-5-(2,4-dimethoxyphenyl)thiophene-2-carboxamide]
Second: Cc1ccc(C(=O)NC2CC2)cc1NC(=O)c1ccc(-c2cccc(CO)c2)s1 [Example 160, N-(5-(cyclopropylcarbamoyl)-2-methylphenyl)-5-(3-(hydroxymethyl)phenyl)thiophene-2-carboxamide]
The “beta/alpha (alpha selectivity)” value of the first is lower: 228 for the first, 233 for the second.

Going from `CCNC(=O)c1ccc(-c2ccc(C(=O)Nc3cc(C(=O)NC4CC4)ccc3C)s2)cc1` [Example 181, N-(5-(cyclopropylcarbamoyl)-2-methylphenyl)-5-(4-(ethylcarbamoyl)phenyl)thiophene-2-carboxamide] to `Cc1ccc(C(=O)NC2CC2)cc1NC(=O)c1ccc(-c2ccc(C(=O)NC(C)C)cc2)s1` [Example 182, N-(5-(cyclopropylcarbamoyl)-2-methylphenyl)-5-(4-(isopropylcarbamoyl)phenyl)thiophene-2-carboxamide], the “beta/alpha (alpha selectivity)” value falls from 240 to 118.

Compared with `Cc1ccc(C(=O)NC2CC2)cc1NC(=O)c1ccc(-c2ccc(C(N)=O)cc2)s1` [Example 185, 5-(4-carbamoylphenyl)-N-(5-(cyclopropylcarbamoyl)-2-methylphenyl)thiophene-2-carboxamide], `Cc1ccc(C(=O)NC2CC2)cc1NC(=O)c1ccc(-c2ccc[n+]([O-])c2)s1` [Example 196, 3-(5-(5-(Cyclopropylcarbamoyl)-2-methylphenylcarbamoyl)thiophen-2-yl)pyridine 1-oxide] is higher in “beta/alpha (alpha selectivity)” value: 162 for the first, 225 for the second.

First: Cc1ccc(C(=O)NC2CC2)cc1NC(=O)c1cc(-c2cccnc2)cs1 [Example 204, N-(5-(Cyclopropylcarbamoyl)-2-methylphenyl)-4-(pyridin-3-yl)thiophene-2-carboxamide]
Second: Cc1ccc(C(=O)NC2CC2)cc1NC(=O)c1ccc(-c2ncccc2C(F)(F)F)s1 [Example 210, N-(5-(Cyclopropylcarbamoyl)-2-methylphenyl)-5-(3-(trifluoromethyl)pyridin-2-yl)thiophene-2-carboxamide]
The “beta/alpha (alpha selectivity)” value of the first is lower: 379 for the first, 433 for the second.

Compared with `Cc1ccc(C(=O)NC2CC2)cc1NC(=O)c1c[nH]c2ccccc12` [Example 221, N-(5-(cyclopropylcarbamoyl)-2-methylphenyl)-1H-indole-3-carboxamide], `Cc1ccc(C(=O)NC2CC2)cc1NC(=O)c1ccc2c(C#N)cn(C)c2c1` [Example 223, 3-Cyano-N-(5-(cyclopropylcarbamoyl)-2-methylphenyl)-1-methyl-1H-indole-6-carboxamide] is lower in “beta/alpha (alpha selectivity)” value: 540 for the first, 423 for the second.

`Cc1ccc(C(=O)NC2CC2)cc1NC(=O)c1ccc2ccn(CCN3CCOCC3)c2c1` [Example 225, N-(5-(Cyclopropylcarbamoyl)-2-methylphenyl)-1-(2-morpholinoethyl)-1H-indole-6-carboxamide] was tested, and the “beta/alpha (alpha selectivity)” value was 448.
